Experimental data taken from paper PMC3405817 (Evidence-based Complementary and Alternative Medicine : eCAM, 2012).
Values after ≈ are worked out from the molar mass of the structure shown.

Columns and labels:
[1] = system: human promonocytic HL-CZ cells; experiment: Cell viability assay (trypan blue), HL-CZ cells; conditions: 48 hours, trypan blue staining
[2] = Cell viability assay (trypan blue), BHK-21 cells; conditions: hamster, CC50 BHK-21, BHK-21 cells, trypan blue staining
BHK-21 cells = experiment: Cell viability assay (trypan blue), BHK-21 cells; conditions: BHK-21 cells, 48 hours, trypan blue staining
JEV [3] = experiment: Plaque reduction and time-of-addition assay in BHK-21 cells; conditions: Japanese encephalitis virus
[4] = Cell viability assay (trypan blue), HL-CZ cells; conditions: human, CC50 HL-CZ, trypan blue staining
JEV [5] = experiment: Virucidal activity assay; format: cell-based; conditions: Japanese encephalitis virus; JEV 10^5 pfu preincubated 60 min at 4°C, 1000-fold dilution, residual infectivity on BHK-21
Method: Virucidal assay was based on prior reports. […] A 1000-fold dilution of each extract/virus or compound/virus mixture was added onto BHK-21 cell monolayer in 6-well plates.

JEV [6] = experiment: Virus yield in JEV-infected HL-CZ cells by plaque assay; conditions: 10 μg/mL, JEV MOI 0.5, after 24 h incubation
[7] = system: virulent JEV strain Beijing-1; experiment: Mouse protection assay against lethal JEV challenge; format: in vivo; conditions: BALB/c mice, i.c. JEV 1 × 10^5 pfu, 1 mg/kg i.c. at 2, 24, 48 h after infection
Method: Groups (n = 10) of 2-week-old BALB/c mice were intracerebrally infected with 1 × 10^5 pfu of virulent JEV strain Beijing-1 then underwent three intracerebral treatments with 30 μg/100 μL of I. indigotica extract or marker compound (1 mg/kg of body weight) using 100 μL syringes at 2, 24, and 48 h after infection. Two additional groups were infected with JEV and received PBS or DMSO (0.05%) treatment as solvent controls. Survival rates were monitored every day for one week.

JEV [8] = experiment: Virus attachment assay (4°C, BHK-21 monolayer); format: cell-based; conditions: Japanese encephalitis virus; JEV 120 pfu, 4°C 1 h on BHK-21 monolayer, residual infectivity by plaque assay
Method: After 3-day incubation at 37°C in a 5% CO2 incubator, plaques were stained, as described in plaque assay.

[9] = BHK-21, 1 h, read-out: IC50 of posttreatment
[10] = BHK-21, 1 h, read-out: IC50 of simultaneous treatment
[11] = BHK-21, read-out: IC50 of pretreatment

SMILES	CC50 HL-CZ [1] [µg/mL]	CC50 at 48 h [2] [µg/mL]	CC50 BHK-21 (BHK-21 cells) [µg/mL]	IC50 (JEV [3]; [9]) [µg/mL]	IC50 (JEV [3]; [10]) [µg/mL]	IC50 (JEV [3]; [11]) [µg/mL]	CC50 at 48 h [4] [µg/mL]	IC50 (JEV [5]) [µg/mL]	virus yield reduced (JEV [6])	CC50 BHK-21 (BHK-21 cells; listed as indigo) [µg/mL]	Survival rate on Day 6 after infection [7] [%]	IC50 (JEV [8]) [µg/mL]
C=C(C)[C@@H]1CC[C@]2(CO)CC[C@]3(C)[C@H](CC[C@@H]4[C@@]5(C)CC[C@H](O)C(C)(C)[C@@H]5CC[C@]43C)[C@@H]12 [Betulin, betulin]	2.10 ± 0.78 (≈ 4.74 µM)	< 25	13.30 ± 2.58 (≈ 30 µM)	–	–	–	–	–	–	–	–	–
O=C1/C(=C2\Nc3ccccc3C2=O)Nc2ccccc21 [Indigo, indigo]	–	–	86.88 ± 3.72 (≈ 331 µM)	> 50	37.5 ± 3.18 (≈ 143 µM)	11.79 ± 0.1 (≈ 45 µM)	99.41 ± 0.54 (≈ 379 µM)	3.03 ± 3.18 (≈ 11.6 µM)	approximately 40%	26.88 (≈ 102 µM)	50	5.15 ± 0.18 (≈ 19.6 µM)
O=C1c2ccccc2-n2c1nc1ccccc1c2=O [Tryptathrin, tryptanthrin]	1.74 ± 0.34 (≈ 7.01 µM)	–	4.57 ± 0.26 (≈ 18.4 µM)	–	–	–	–	–	–	–	–	–
O=c1[nH]c2ccccc2o1 [2-Benzoxazolinone, 2-benzoxazolinone]	67.33 ± 10.2 (≈ 498 µM)	< 25	19.92 ± 1.57 (≈ 147 µM)	–	–	–	–	–	–	–	–	–
Nc1ncnc2c1ncn2[C@@H]1O[C@H](CO)[C@@H](O)[C@H]1O [Adenosine, adenosine]	15.38 ± 1.05 (≈ 57.6 µM)	< 25	24.10 ± 2.57 (≈ 90.2 µM)	–	–	–	< 25	–	–	–	–	–
C=C(C)[C@@H]1CC[C@]2(C)CC[C@]3(C)[C@H](CC[C@@H]4[C@@]5(C)CC[C@H](O)C(C)(C)[C@@H]5CC[C@]43C)[C@@H]12 [Lupeol, lupeol]	3.44 ± 1.17 (≈ 8.06 µM)	–	9.53 ± 1.32 (≈ 22.3 µM)	–	–	–	–	–	–	–	–	–
O=C1Nc2ccccc2/C1=C1/Nc2ccccc2C1=O [Indirubin, indirubin]	–	57.5 (≈ 219 µM)	>100	> 50	13.7 ± 2.83 (≈ 52.2 µM)	23.5 ± 0.89 (≈ 89.6 µM)	64.9 ± 1.08 (≈ 247 µM)	0.47 ± 2.83 (≈ 1.79 µM)	approximately 40%	–	70	5.1 ± 1.32 (≈ 19.4 µM)
